Legend:
[1] = Half life in human plasma by RP-HPLC analysis; type: ADME, cell-free
[2] = Drug uptake in Sprague-Dawley rat blood at 2 mg/kg administered via nasal cavity after 10 mins; type: ADME, organism-based; set-up: dose 2 mg/kg; settings: inhaled or intranasal, read-out: Drug uptake
[3] = Drug uptake in Sprague-Dawley rat brain at 2 mg/kg administered via nasal cavity after 10 mins; type: ADME, organism-based; set-up: dose 2 mg/kg; settings: inhaled or intranasal, read-out: Drug uptake
Brain [4] = test: Drug uptake in rat brain homogenate at 6.5 uM after 30 mins by LC-MS/MS analysis; type: ADME, tissue-based; settings: in vivo, 0.5 h
[5] = Drug uptake in Sprague-Dawley rat olfactory bulb at 2 mg/kg administered via nasal cavity after 10 mins; type: ADME, organism-based; set-up: dose 2 mg/kg; settings: inhaled or intranasal, read-out: Drug uptake
Brain [6] = test: Drug uptake in rat brain homogenate at 18.2 uM after 30 mins by LC-MS/MS analysis; type: ADME, tissue-based; settings: in vivo, 0.5 h
Plasma = test: Drug degradation in human plasma assessed as N-lactose endomorphin1 formation after 2 mins by RP-HPLC analysis; type: ADME, cell-free

SMILES	half-life [1] [min]	concentration at 10 min [2] [nM]	concentration at 10 min [3] [nM]	Drug uptake (Brain [4]) [µM]	concentration at 10 min [5] [nM]	Drug uptake (Brain [6]) [µM]	Stability (Plasma)
NC(=O)[C@H](Cc1ccccc1)NC(=O)[C@H](Cc1c[nH]c2ccccc12)NC(=O)[C@@H]1CCCN1C(=O)[C@@H](N)Cc1ccc(O)cc1 [ENDOMORPHIN-1]	5.9						
NC(=O)[C@H](Cc1ccccc1)NC(=O)[C@H](Cc1c[nH]c2ccccc12)NC(=O)[C@@H]1CCCN1C(=O)[C@H](Cc1ccc(O)cc1)NC(=O)CCC(=O)N[C@@H]1O[C@H](CO)[C@@H](O[C@@H]2O[C@H](CO)[C@H](O)[C@H](O)[C@H]2O)[C@H](O)[C@H]1O	12.9	1.6	4	3.4	514	18.12	
CC(=O)OC[C@H]1O[C@@H](O[C@H]2[C@H](OC(C)=O)[C@@H](OC(C)=O)[C@H](NC(=O)CCC(=O)N[C@@H](Cc3ccc(O)cc3)C(=O)N3CCC[C@H]3C(=O)N[C@@H](Cc3c[nH]c4ccccc34)C(=O)N[C@@H](Cc3ccccc3)C(N)=O)O[C@@H]2COC(C)=O)[C@H](OC(C)=O)[C@@H](OC(C)=O)[C@H]1OC(C)=O							Unstable
